Structures can show the parent of a compound that is named as a salt.
Molecular target: T1, hYAK3 (Homo sapiens, UniProt O43781)
T1 construct: containing amino acid residues 124-526 of human YAK3; GST (N); His6 (C); made in house; host or cells: baculovirus expression system in Sf9 cells
T1 sequence (O43781 124-526): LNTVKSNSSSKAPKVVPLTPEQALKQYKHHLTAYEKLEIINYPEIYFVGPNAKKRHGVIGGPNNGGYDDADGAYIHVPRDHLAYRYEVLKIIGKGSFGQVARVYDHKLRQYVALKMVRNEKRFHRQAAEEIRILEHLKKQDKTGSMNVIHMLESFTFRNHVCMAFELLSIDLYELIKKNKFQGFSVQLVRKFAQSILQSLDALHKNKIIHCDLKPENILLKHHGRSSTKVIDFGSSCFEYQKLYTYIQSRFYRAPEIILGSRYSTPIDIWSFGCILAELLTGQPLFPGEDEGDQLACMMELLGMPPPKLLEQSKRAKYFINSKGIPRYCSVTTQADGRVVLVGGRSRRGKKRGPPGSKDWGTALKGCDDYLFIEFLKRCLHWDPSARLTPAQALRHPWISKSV
Assay: YAK3 Scintillation Proximity Assay using Ser164 of myelin basic protein as the phosphoacceptor (kinase assay of purified hYAK3)
Format: biochemical
Conditions: purified GST-hYak3-His6 (residues 124-526), 4 nM; 0.001 mM ATP; 4 μM Ser164 peptide; 2 hours at room temperature; compounds 50 μM to 0.5 nM
Description: YAK3 Scintillation Proximity Assays Using Ser164 of Myelin Basic Protein as the Phosphoacceptor
Source of Ser164 Substrate Peptide:
The biotinylated Ser164, S164A peptide(Biotinyl -LGGRDSRAGS*PMARR—OH), sequence derived from the C-terminus of bovine myelin basic protein (MBP) with Ser162 substituted as Ala162, was purchased from California Peptide Research Inc. (Napa, Calif.), and its purity was determined by HPLC. Phosphorylation occurs at position 164 (marked S* above). The calculated molecular mass of the peptide was 2166 dalton. Solid sample was dissolved at 10 mM in DMSO, aliquoted, and stored at −20° C. until use.
hYAK3: Glutathione-S-Transferase (GST)-hYak3-His6 containing amino acid residues 124-526 of human YAK3 was purified from baculovirus expression system in Sf9 cells using Glutathione Sepharose 4B column chromatography followed by Ni-NTA-Agarose column chromatography. Purity greater than 65% typically was achieved. Samples, in 50 mM Tris, 150 mM NaCl, 10% glycerol, 0.1% Triton, 250 mM imidazole, 10 mM β-mercapto ethanol, pH 8.0.—
were stored at −80° C. until use.
Kinase Assay of Purified hYAK3:
Assays were performed in 96 well (Costar, Catalog No. 3789) or 384 well plates (Costar, Catalog No. 3705). Reaction (in 20, 25, or 40 μl volume) mix contained in final concentrations 25 mM Hepes buffer, pH 7.4; 10 mM MgCl2; 10 mM β-mercapto ethanol; 0.0025% Tween-20; 0.001 mM ATP, 0.1 ? Ci of [ ? -^33P]ATP; purified hYAK3 (7-14 ng/assay; 4 nM final); and 4 μM Ser164 peptide. Compounds, titrated in DMSO, were evaluated at concentrations ranging from 50 μM to 0.5 nM. […] Reactions were incubated for 2 hours at room temperature and were stopped by a 75 ul addition of […] Streptavidin Scintillation Proximity beads (Amersham Pharmacia Biotech, Catalog No. RPNQ 0007) in PBS, pH 7.4, 10 mM EDTA, 0.1% Triton X-100, 1 mM ATP. Under the assay conditions defined above, the Km(apparent) for ATP was determined to be 7.2+/−2.4 μM. Assay results are depicted in Table 1.

For `COc1ccc2cc(C(=O)O)c(NCCCNC(=O)OC(C)(C)C)nc2c1` [Example 1, 2-(3-tert-butoxycarbonylamino-propylamino)-7-methoxy-quinoline-3-carboxylic acid], the IC50 was 1000 to 10000 nM.

`COc1ccc2cc(C(=O)O)c(NCCCN)nc2c1` [Example 2, 2-(3-amino-propylamino)-7-methoxy-quinoline-3-carboxylic acid] showed an IC50 of under 1000 nM.

In the case of `COc1ccc2cc(C(=O)O)c(NCc3ccccc3)nc2c1` [Example 3, 2-benzylamino-7-methoxy-quinoline-3-carboxylic acid], the IC50 is reported as under 1000 nM.

For `COc1ccc2cc(C(=O)O)c(NCCc3ccccc3)nc2c1` [Example 4, 7-methoxy-2-phenethylamino-quinoline-3-carboxylic acid], the IC50 was under 1000 nM.

`COc1ccc2cc(C(=O)O)c(NCCc3ccncc3)nc2c1` [Example 5, 7-methoxy-2-(2-pyridin-4-yl-ethylamino)-quinoline-3-carboxylic acid] was tested, and the IC50 was under 1000 nM.

With `COc1ccc2cc(C(=O)O)c(NCCN(C)C)nc2c1` [Example 6, 2-(2-dimethylamino-ethylamino)-7-methoxy-quinoline-3-carboxylic acid hydrochloride] the IC50 was under 1000 nM.

For `COc1ccc2cc(C(=O)O)c(NC3Cc4ccccc4C3)nc2c1` [Example 7, 2-(indan-2-ylamino)-7-methoxy-quinoline-3-carboxylic acid], the IC50 was under 1000 nM.

`COc1ccc2cc(C(=O)O)c(NCCCN3CCOCC3)nc2c1` [Example 8, 7-methoxy-2-(3-morpholin-4-yl-propylamino)-quinoline-3-carboxylic acid] gave an IC50 of 1000 to 10000 nM.

In the case of `O=C(O)c1cc2ccc(O)cc2nc1Nc1ccccc1Cl` [Example 12, 2-(2-Chloro-phenylamino)-7-hydroxy-quinoline-3-carboxylic acid], the IC50 is reported as under 1000 nM.
